Our source for the IC50 values is patent US8362249B2, “CXCR3 receptor antagonists” (Boehringer Ingelheim International GmbH, priority 2009, dated 2013).

Chain of CXCR3 (A0A2K5UV19 entry or part of it): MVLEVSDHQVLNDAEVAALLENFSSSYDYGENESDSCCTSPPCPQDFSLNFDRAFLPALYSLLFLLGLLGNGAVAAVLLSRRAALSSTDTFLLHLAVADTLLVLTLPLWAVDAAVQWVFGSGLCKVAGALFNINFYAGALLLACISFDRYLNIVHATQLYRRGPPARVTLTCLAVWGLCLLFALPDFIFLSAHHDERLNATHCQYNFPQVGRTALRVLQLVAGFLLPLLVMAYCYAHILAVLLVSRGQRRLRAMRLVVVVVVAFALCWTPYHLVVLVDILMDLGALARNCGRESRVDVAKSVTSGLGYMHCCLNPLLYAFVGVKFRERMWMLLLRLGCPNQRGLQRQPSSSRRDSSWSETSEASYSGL

This experiment concerns the target CXCR3 (Macaca fascicularis, UniProt A0A2K5UV19). The experiment is described as follows: functional cellular assay measuring calcium flux in CXCR3 transfected cells (block of CXCR3/IP-10 interaction). Format: cell-based. Conditions: IP-10 induced intracellular calcium flux; Cyno-CHO cells stably expressing recombinant CXCR3 and G-alpha-16. As to the method:
Compounds are assessed for the ability to block the interaction of CXCR3 and IP-10 in a functional cellular assay measuring calcium flux in CXCR3 transfected cells.
Cyno-CHO cells, stably expressing recombinant CXCR3 and G-alpha-16 are grown in F12 medium (Mediatech #45000-360) supplemented with 10% (V/V) FBS (Mediatech #35-01500), 1% Geneticin (Invitrogen #10131-027) and 0.2% Zeocin (Invitrogen #R250-05). The cells are spun down and re-suspended in growth media to a concentration of 4.8 E5 cells/mL. 25 microL of cell suspension is added to each well of a BD-384-well TC treated plate, providing 12,000 cells/well. The plate is incubated at 37° C./5% CO2 overnight. On the day of the assay, the plates are removed, the media is flicked out and 25 microL of Ca-4 dye in assay buffer (HBSS, 10 mM HEPES ph 7.4), containing 2 mM probenacid is added to each well. The cell assay plates are then incubated at 37° C./5% CO2 for one hour.
Test compounds are dissolved in DMSO and diluted to 1.045 mM in DMSO. Just prior to assay, 2.75 microL of appropriately diluted test compound are added to each well of a 384 well plate containing 45 microL of HBSS buffer. After mixing, 5 microL of diluted compound are added to each well of the cell assay plate for a final assay concentration of 10 microM. The plate is incubated at room temperature for 15 min. 10 microL of IP-10 stock solution in HBSS (4× EC80 concentration) are added to each well of the cell assay plate except those cells reserved as blank wells containing buffer only. Intracellular calcium flux is recorded on the HAMAMTSU FDSS6000, using excitation at 480 nm and emission at 540 nm. Data are analyzed using Activity Base software.
In general, the preferred potency range (IC50) of compounds in the above assay is between 1 nM to 3 μM, and the most preferred potency range is 1 nM to 20 nM.
(Calcium assays in cells follow changes in intracellular calcium, usually with a dye or a luminescent sensor.)
`Cc1cc(C)n(CC(=O)N2CCN(c3ccccc3C(=O)Nc3ccc(Cl)nc3)CC2)n1` [N-(6-Chloro-pyridin-3-yl)-2-{4-[2-(3,5-dimethyl-pyrazol-1-yl)-acetyl]-piperazin-1-yl}-benzamide]: the IC50 (commonly the concentration at which inhibition is half-maximal) is 7.2 nM.
With `COc1cc(NC(=O)c2cc(F)ccc2N2CCN(C(=O)Cn3nc(C)cc3C)CC2)ccn1` [2-{4-[2-(3,5-Dimethyl-pyrazol-1-yl)-acetyl]-piperazin-1-yl}-5-fluoro-N-(2-methoxy-pyridin-4-yl)-benzamide] the figure was 9.7 nM.
With `Cc1cc(C)n(CC(=O)N2CCN(c3ccccc3C(=O)Nc3nc4ccccc4s3)CC2)n1` [N-Benzothiazol-2-yl-2-{4-[2-(3,5-dimethyl-pyrazol-1-yl)-acetyl]-piperazin-1-yl}-benzamide] the figure was 5.9 nM; with `O=C(Nc1ccncc1)c1ccccc1N1CCN(C(=O)Cc2noc3ccccc23)CC1` [2-[4-(2-Benzo[d]isoxazol-3-yl-acetyl)-piperazin-1-yl]-N-pyridin-4-yl-benzamide], 6.6 nM.
With `O=C(Nc1cncc(F)c1)c1ccccc1N1CCN(C(=O)Cn2ccc3ccncc32)CC1` [N-(5-Fluoro-pyridin-3-yl)-2-[4-(2-pyrrolo[2,3-c]pyridin-1-yl-acetyl)-piperazin-1-yl]-benzamide], the IC50 was determined as 1.3 nM.
Regarding `Cc1cc(C)n(CC(=O)N2CCN(c3ccccc3C(=O)Nc3nc(-c4cccnc4)cs3)CC2)n1` [2-{4-[2-(3,5-Dimethyl-pyrazol-1-yl)-acetyl]-piperazin-1-yl}-N-(4-pyridin-3-yl-thiazol-2-yl)-benzamide], the IC50 came out at 20 nM.
With `COc1cc(NC(=O)c2cc(F)ccc2N2CCN(C(=O)CN3CCCCC3=O)CC2)ccn1` [5-Fluoro-N-(2-methoxy-pyridin-4-yl)-2-{4-[2-(2-oxo-piperidin-1-yl)-acetyl]-piperazin-1-yl}-benzamide] the figure was 9 nM; with `Cc1cc(C)n(CC(=O)N2CCN(c3ccccc3C(=O)Nc3cncc(F)c3)CC2)n1` [2-{4-[2-(3,5-Dimethyl-pyrazol-1-yl)-acetyl]-piperazin-1-yl}-N-(5-fluoro-pyridin-3-yl)-benzamide], 10.8 nM.
With `Cc1cc(C)n(CC(=O)N2CCC(c3ccc(Cl)cc3NC(=O)c3ccccc3)CC2)n1` [N-(5-Chloro-2-{1-[2-(3,5-dimethyl-pyrazol-1-yl)-acetyl]-piperidin-4-yl}-phenyl)-benzamide], the IC50 was 18.5 nM.
As to `Cc1cc(C(=O)NCC(=O)N2CCN(c3ccccc3C(=O)Nc3cccnc3)CC2)nn1C` [1,5-Dimethyl-1H-pyrazole-3-carboxylic acid (2-oxo-2-{4-[2-(pyridin-3-ylcarbamoyl)-phenyl]-piperazin-1-yl}-ethyl)-amide], the IC50 amounted to 20 nM.
The result for `Cc1cc(C)n(CC(=O)N2CCN(c3ccccc3C(=O)Nc3ccnc(C(C)(C)C)c3)CC2)n1` [N-(2-tert-Butyl-pyridin-4-yl)-2-{4-[2-(3,5-dimethyl-pyrazol-1-yl)-acetyl]-piperazin-1-yl}-benzamide] reads 8.5 nM; that for `Cc1cc(C)n(CC(=O)N2CCN(c3ccccc3C(=O)Nc3ccc(S(C)(=O)=O)cc3)CC2)n1` [2-{4-[2-(3,5-Dimethyl-pyrazol-1-yl)-acetyl]-piperazin-1-yl}-N-(4-methanesulfonyl-phenyl)-benzamide], 8.8 nM.
In the case of `Cc1cc(C)n(CC(=O)N2CCN(c3ccccc3C(=O)Nc3ccc4oc(C)nc4c3)CC2)n1` [2-{4-[2-(3,5-Dimethyl-pyrazol-1-yl)-acetyl]-piperazin-1-yl}-N-(2-methyl-benzooxazol-5-yl)-benzamide], the IC50 was 17.5 nM.
With `Cc1cc(C)n(CC(=O)N2CCCN(c3ncc(Cl)cc3NC(=O)c3cccc(Cl)c3)CC2)n1` [3-Chloro-N-(5-chloro-2-{4-[2-(3,5-dimethyl-pyrazol-1-yl)-acetyl]-[1,4]diazepan-1-yl}-pyridin-3-yl)-benzamide], the IC50 was determined as 15 nM.
With `Cc1nc2ccccc2c(=O)n1CC(=O)N1CCN(c2ccccc2C(=O)Nc2ccncc2)CC1` [2-{4-[2-(2-Methyl-4-oxo-4H-quinazolin-3-yl)-acetyl]-piperazin-1-yl}-N-pyridin-4-yl-benzamide] the figure was 8.6 nM; with `Cc1cc(C)n(CC(=O)N2CCN(c3ccccc3C(=O)Nc3ccc(N4CCOCC4)nc3)CC2)n1` [2-{4-[2-(3,5-Dimethyl-pyrazol-1-yl)-acetyl]-piperazin-1-yl}-N-(6-morpholin-4-yl-pyridin-3-yl)-benzamide], 12.5 nM.
Turning to `COc1ccc(C(=O)NCC(=O)N2CCN(c3ncc(Cl)cc3NC(=O)c3cccc(C(F)(F)F)c3)CC2)cc1OC` [N-(2-{4-[5-Chloro-3-(3-trifluoromethyl-benzoylamino)-pyridin-2-yl]-piperazin-1-yl}-2-oxo-ethyl)-3,4-dimethoxy-benzamide], the concentration for half-maximal inhibition (IC50) was found to be 8.8 nM.
`Cc1nc(CC(=O)N2CCN(c3ccccc3C(=O)Nc3ccncc3)CC2)c(C)s1` [2-{4-[2-(2,5-Dimethyl-thiazol-4-yl)-acetyl]-piperazin-1-yl}-N-pyridin-4-yl-benzamide]: the 50% inhibitory concentration (IC50) amounted to 7 nM.
On to `COc1cccc(C(=O)N(C)CC(=O)N2CCN(c3ccccc3C(=O)Nc3ccncc3)CC2)c1OC` [2,3-Dimethoxy-N-methyl-N-(2-oxo-2-{4-[2-(pyridin-4-ylcarbamoyl)-phenyl]-piperazin-1-yl}-ethyl)-benzamide], for which the IC50 came to 15 nM.
On to `Cc1cc(C)n(CC(=O)N2CCN(c3ccccc3C(=O)Nc3cncc(Cl)c3)CC2)n1` [N-(5-Chloro-pyridin-3-yl)-2-{4-[2-(3,5-dimethyl-pyrazol-1-yl)-acetyl]-piperazin-1-yl}-benzamide], for which the IC50 is 7.6 nM.
In the case of `CCn1nc(C)cc1C(=O)NCC(=O)N1CCN(c2ccccc2C(=O)Nc2cccnc2)CC1` [2-Ethyl-5-methyl-2H-pyrazole-3-carboxylic acid (2-oxo-2-{4-[2-(pyridin-3-ylcarbamoyl)-phenyl]-piperazin-1-yl}-ethyl)-amide], the half-inhibitory concentration (IC50) was determined as 18 nM.
As to `Cc1cc(C)n(CC(=O)N2CCN(c3ccccc3C(=O)Nc3ccncc3F)CC2)n1` [2-{4-[2-(3,5-Dimethyl-pyrazol-1-yl)-acetyl]-piperazin-1-yl}-N-(3-fluoro-pyridin-4-yl)-benzamide], the IC50 worked out at 19.5 nM.
On to `Cc1cc(C)n(CC(=O)N2CCN(c3ccccc3C(=O)Nc3cccc(S(=O)(=O)N(C)C)c3)CC2)n1` [2-{4-[2-(3,5-Dimethyl-pyrazol-1-yl)-acetyl]-piperazin-1-yl}-N-(3-dimethylsulfamoyl-phenyl)-benzamide], for which the IC50 amounted to 17 nM.
As for `Cc1nn(CC(=O)N2CCCN(c3ncc(Cl)cc3NC(=O)c3cccc(Cl)c3)CC2)c(C)c1Cl` [3-Chloro-N-(5-chloro-2-{4-[2-(4-chloro-3,5-dimethyl-pyrazol-1-yl)-acetyl]-[1,4]diazepan-1-yl}-pyridin-3-yl)-benzamide], the IC50 stood at 15 nM.
Regarding `COc1ccc(NC(=O)c2ccccc2N2CCN(C(=O)Cn3nc(C)cc3C)CC2)cn1` [2-{4-[2-(3,5-Dimethyl-pyrazol-1-yl)-acetyl]-piperazin-1-yl}-N-(6-methoxy-pyridin-3-yl)-benzamide], the IC50 worked out at 5.9 nM.
Regarding `O=C(Nc1ccncc1)c1ccccc1N1CCN(C(=O)CN2CCCCC2=O)CC1` [2-{4-[2-(2-Oxo-piperidin-1-yl)-acetyl]-piperazin-1-yl}-N-pyridin-4-yl-benzamide], the IC50 was found to be 7.4 nM.
For `COc1cccc(NC(=O)c2ccccc2N2CCN(C(=O)Cn3nc(C)cc3C)CC2)c1` [2-{4-[2-(3,5-Dimethyl-pyrazol-1-yl)-acetyl]-piperazin-1-yl}-N-(3-methoxy-phenyl)-benzamide], the IC50 came to 4.3 nM.
On to `Cc1cc(C)n(CC(=O)N2CCN(c3ccccc3C(=O)Nc3nc(C(F)(F)F)cs3)CC2)n1` [2-{4-[2-(3,5-Dimethyl-pyrazol-1-yl)-acetyl]-piperazin-1-yl}-N-(4-trifluoromethyl-thiazol-2-yl)-benzamide], for which the IC50 is 18 nM.
For `CN(CC(=O)N1CCN(c2ccccc2C(=O)Nc2ccncc2)CC1)C(=O)c1ccccc1` [2-{4-[2-(Benzoyl-methyl-amino)-acetyl]-piperazin-1-yl}-N-pyridin-4-yl-benzamide], the IC50 amounted to 8.4 nM.
Consider `Cc1cc(C)n(CC(=O)N2CCN(c3ccccc3C(=O)Nc3nc4c(Cl)cccc4s3)CC2)n1` [N-(4-Chloro-benzothiazol-2-yl)-2-{4-[2-(3,5-dimethyl-pyrazol-1-yl)-acetyl]-piperazin-1-yl}-benzamide], for which the IC50 came out at 13 nM.
Consider `COc1cccc(C(=O)NCC(=O)N2CCN(c3ccccc3C(=O)Nc3ccncc3)CC2)c1OC` [2,3-Dimethoxy-N-(2-oxo-2-{4-[2-(pyridin-4-ylcarbamoyl)-phenyl]-piperazin-1-yl}-ethyl)-benzamide], for which the concentration for half-maximal inhibition (IC50) was found to be 3.7 nM.
In the case of `Cc1cc(C)n(CC(=O)N2CCN(c3ccccc3C(=O)Nc3cnc(-c4ccccc4)nc3)CC2)n1` [2-{4-[2-(3,5-Dimethyl-pyrazol-1-yl)-acetyl]-piperazin-1-yl}-N-(2-phenyl-pyrimidin-5-yl)-benzamide], the half-inhibitory concentration (IC50) stood at 10.5 nM.
